In one test the test system is SARS-CoV-2 Delta variant. In words: microbe, parasite or virus in culture. The test is classed as cell-based. As to conditions: Severe acute respiratory syndrome coronavirus 2; Caco-2 cells, dsRNA immunofluorescence.
The test system of test [1] is SARS-CoV-2 Omicron variant. As to the kind of experiment: microbe, parasite or virus in culture. Type of test: cell-based. Conditions: Severe acute respiratory syndrome coronavirus 2; Caco-2 cells, dsRNA immunofluorescence; read-out: EC50 Omikron.

Drawing on patent US20250066290A1, “DHODH INHIBITORS CONTAINING A CARBOXYLIC ACID BIOISOSTERE” (IMMUNIC AG, priority 2021, published 2025), this text covers EC50 for one compound.

Broadly, the EC50 is the concentration at which the effect is half-maximal.

Turning to `[2H]C([2H])([2H])Oc1cccc(-c2cc(F)c(NC(=O)c3ccsc3C(=O)NOC)c(F)c2)c1` [Example 9, N3-(3,5-Difluoro-3′-(methoxy-d3)-[1,1′-biphenyl]-4-yl)-N2-methoxythiophene-2,3-di-carboxamide], the concentration for a half-maximal effect (EC50) (in the test with SARS-CoV-2 Delta variant; in test [1]) was below 3 nM in each case.
